Test results: patent US20040224995A1 (University of North Texas Health Science Center at Fort …, priority 2003, published 2004)

Test system: HT-22 cells
Assay: HT-22 cell viability during H2O2 exposure (calcein AM assay)
Type: cell-based, mouse
Details: for pre-incubation required to achieve significant neuroprotection from H2O2 toxicity / protection against H2O2: HT-22; for concentrations toxic to HT-22 cells: HT-22, H2O2 experiments; for protection against H2O2: 24 h pretreatment, 30 μM H2O2; for protection when given after the H2O2 insult: post-treatment
Experimental: HT-22 cultures were incubated with different concentrations of the three compounds for 24 hours prior to the insult. […] Peak neuroprotective concentrations for 15d-PGJ2 ranged from […]. […] Additionally, we determined the effects of 15d-PGJ2 and troglitazone on HT-22 cells protection against another type of pro-oxidant insult, hydrogen peroxide H2O2. […] Higher concentrations (>10 μM and >20 μM) of 15 dPGJ2 and troglitazone, respectively, were toxic to HT-22 cells. […] HT-22 cells were pre-treated with 15d-PGJ2 for 24 hours. Thirty micromolar of H2O2 was then administered, and cell viability was determined 24 hours later. The cell viability is expressed as a % survival of the control (non-peroxide treated) cultures. DMSO received the vehicle only for 15d-PGJ2. Shown in FIG. 23 are the mean±SEM for n>6 cultures/group. The asterisk (“*”) indicates p<0.05 versus respective control.
The WY-14643, Ciglitazone, Troglitazone, 9-cis retinoic acid, and 15d-PGJ2 compounds were purchased from Biomol (Plymouth Meeting, Pa.). L-165041 and L-783483 were kindly provided by Merck Laboratories. The cell lines used were HT-22, an immortalized mouse hippocampal cell line, and SK—N—SH, a human neuroblastoma cell line. The HT-22 cells were obtained from David Schubert (Salk Institute, San Diego, Calif.). The HT-22 line was originally selected from HT-4 cells based on glutamate sensitivity. HT-4 cells were immortalized from primary hippocampal neurons using a temperature-sensitive SV-40 T antigen (Morimoto and Koshland, 1990). SK—N—SH were obtained from ATCC (Manassas, Va.). HT-22 and SK—N—SH cells were grown to confluence in DMEM and RPMI-1640 media, respectively, and supplemented with 10% charcoal/dextran-treated fetal bovine serum (FBS), and 5 mg/ml gentamycin at 37° C. under 95% air, 5% CO2. HT-22 cells were plated at a density of 50,000 cells/ml (5,000 cells/well), and SK—N—SH were plated at a density of 120,000 to 150,000 cells/ml (12,000 to 15,000 cells/well) in 96-well plates. In most studies, wells were pre-treated with PPAR ligands over a wide dose range at various times prior to being subjected to either glutamate, hydrogen peroxide (H2O2), or serum deprivation insults. In some studies, the insults were applied prior to the addition of the PPAR ligand.
The cell viability assays were conducted about 14 to 24 hours post-insult time, viability of cells was determined using 2.5 μM Calcein AM assay in phosphate-buffered saline (PBS). After 25 minutes of incubation, live cells were distinguished by the presence of intracellular esterase activity, which cleaves the calcein AM dye, producing a bright green fluorescence. Viability was measured in Relative Fluorescent Units (“RFU”), and expressed as percentage of vehicle-treated control values. The calcein assay was designed to produce results that accurately reflect viable cell numbers. At cell concentrations below 10,000 cells per well (96-well plate) a linear relationship between RFU and cell number is achieved (r^2=0.9997, data not shown).

Row | SMILES | pre-incubation required to achieve significant neuroprotection from H2O2 toxicity | concentrations toxic to HT-22 cells | protection against H2O2 | protection when given after the H2O2 insult
1 | CCCCC/C=C/C=C1/C(=O)C=C[C@@H]1C/C=C\CCCC(=O)O [15d-PGJ2, 15-deoxy-Δ^12,14-PGJ2] | 4 h | above 10 μM | dose-dependent protection | Neither 15dPGJ2 nor troglitazone protected
2 | Cc1c(C)c2c(c(C)c1O)CCC(C)(COc1ccc(CC3SC(=O)NC3=O)cc1)O2 (centres unmarked) [troglitazone] | 4 h | > 20 µM | dose-dependent protection | Neither 15dPGJ2 nor troglitazone protected
